The text below walks through data of ChEMBL document CHEMBL1122594, “Parasite enzymes as potential targets for antiparasitic chemotherapy” (J Med Chem, 1984).

The species named for experiment [1] is Gallus gallus. In words: Anticoccidial activity against toxoplasmosis in chicken; no activity. Format: functional, organism-based.
The nature of experiment [2]: Anticoccidial activity against toxoplasmosis in cattle; no activity. Format: functional.
A short description of experiment [3]: (§1) Enzymatic activity was determined.
Experiment [4] can be described thus: as §1. This is another data set of the same source.

Active and inactive are the calls of the source. No cut-off for these calls is given here.

Regarding `CCCc1ncc(C[n+]2ccccc2C)c(N)n1`, the outcome in experiment [1] and in experiment [2] was inactive.

In general, Km refers to the substrate concentration at which the rate is half of its maximum. For the molecule `Nc1ccc(C(=O)O)cc1`, the Km in experiment [3] stood at 1.5 µM.

Usually Ki stands for the equilibrium dissociation constant of an inhibitor or competing ligand from its target. Lower therefore signals a stronger hold on the target. Turning to `N=C(N)NS(=O)(=O)c1ccc(N)cc1` [SULFAGUANIDINE], in experiment [4], affinity was put at a Ki of 69 µM.

In experiment [4], `Nc1ccc(S(N)(=O)=O)cc1` [SULFANILAMIDE] registered a Ki of 130 µM. Against the preceding molecule, the Ki is about 1.9-fold higher.

On to `Nc1ccc(S(=O)(=O)Nc2nccs2)cc1` [SULFATHIAZOLE], for which the Ki in experiment [4] was found to be 14 µM. This Ki lies about 9.3-fold lower than the previous one.
